From publication PMC8361937, “Multifunctional Heterometallic Ir^III−Au^I Probes as Promising Anticancer and Antiangiogenic Agents” (Chemistry (Weinheim an Der Bergstrasse, Germany), 2021)
Read-outs that look alike come from different tables or passages of the source.

Legend:
ECFCs = experiment: In vitro tube formation (angiogenic activity) assay; type: cell-based, human; details: 0.25 μM, 20 h, ucb- and apb-ECFCs
Experimental: In vitro tube formation assay is a highly informative test to probe angiogenic ability of endothelial cells.[55] This observation could be the basis to consider their potential antiangiogenic activity and develop complementary assays in more physiologically relevant models. […] The mechanisms involved in this effect deserve further research.
Tube formation assay: Endothelial cells (10 000 cell/well) suspended in cell culture medium containing each compound at 0.25 μM or vehicle (DMSO) were seeded over Cultrex® Reduced Growth Factor Basement Membrane Matrix (Trevigen) gelled (37 °C for 30 min) in wells of μ‐Slide Angiogenesis coverslips (ibidi). DMSO concentration in the medium was below 0.5 %. Cells were then incubated for a 20 h period with the treatments. Images were acquired with a Moticam 3 digital camera system (Motic) through a CK40 inverted microscope (Olympus) using a 10x objective.

ucb‐ECFCs [1] = experiment: Crystal violet cell viability assay in ucb-ECFCs; type: cell-based, human; details: 24 h
Experimental: (§1) Effects on the cell viability related to compounds 1, 2 and 4 were analysed by crystal violet assays in ucb‐ECFCs and apb‐ECFCs. Both kinds of cells show a dose‐dependent sensitivity to the complexes after 24 h of treatment (Figure S30). IC50 values were on the range 1.1‐3.6 μM, ucb‐ECFCs being more sensitive than apb‐ECFCs to the compounds (Table 3), which could be associated to the increased proliferative activity of the ucb‐ECFCs.
(§2) Endothelial colony forming cells (ECFC) were isolated from umbilical cord blood from healthy births but unsuitable for transplantation (ucb‐ECFCs), or from peripheral blood of adult healthy donors (apb‐ECFCs) following the method described by Ingram et al.[57] with minor modifications. […]
(§3) For ECFCs cell viability determination, crystal violet assays were performed. […] Estimation of cell density was achieved by solubilisation of cell‐retained crystal violet with 10 % acetic acid solution and absorbance measurement at 540 nm in a Synergy HD system (BioTek). Data were analysed with SAIC50 v1.5.10 (http://gauss.inf.um.es:8080/IC50/) using the four‐parameter logistic function to calculate IC50 values according to Sebaugh et al.[58]

ucb‐ECFCs [2] = experiment: Annexin V-FITC/PI apoptosis determination in ucb-ECFCs; type: cell-based, human; details: 4 μM, 3 h
Experimental: (§4) An apoptosis determination test was performed under acute conditions, that is, incubation for a short period of time (3 h) and high concentration of complexes (4 μM; Table 4). A different response was observed regarding the origin of the ECFCs. While the cytotoxic effect on ucb‐ECFCs was similar for all complexes (ca. 20 %), mortality levels of 50 % were achieved on apb‐ECFCs with complexes 1 and 4. On the contrary, complex 2 appeared to be no toxic under these conditions.
(§5) For apoptosis assessment on ECFCs cells exposed to 1, 2 and 4 complexes, an Annexin V apoptosis detection kit (Immunostep), with FITC‐conjugated Annexin V and propidium iodide (PI), was used. Cells were incubated during 3 h with 1, 2 and 4 at 4 μM, gently detached from cell culture surface with Accutase (Corning) and resuspended in D‐PBS, and stained with FITC‐conjugated annexin V and PI according to manufacturer instructions. Data were acquired using a Gallios Flow Cytometer (Beckman Coulter), and Kaluza v2.1 (Beckman Coulter) software was used for data analysis.

[3] = test system: A549 lung carcinoma cells; experiment: MTT-reduction cell viability assay in A549 cells; type: cell-based, human; details: 24 h incubation
Experimental: In vitro bioactivity of complexes 1 to 4 as well as their dimer precursor was determined by MTT‐reduction assays in A549 lung carcinoma cells (Table 2). […] Cells show an increased sensitivity to the heterobimetallic species bearing a phosphine or a thiocytosine group as gold ancillary ligand, complexes 2 and 4 respectively. The higher balance of the lipo‐ vs hydrophilicity of triphenylphosphine[35] of complex 2, or the bio‐friendly nature of the thiocytosine ancillary ligand[36, 37] in the case of complex 4 might promote an increase of the cell permeabilisation and thus display a greater antiproliferative activity.
Cell culture: A549 (human lung carcinoma) cell line (from ATCC, USA) was routinely cultured in high glucose DMEM medium supplemented with 5 % foetal bovine serum (FBS), L‐glutamine and penicillin/streptomycin (hereafter, complete medium).
Cell viability assays : The MTT‐reduction assay was used to analyse cell metabolic activity as an indicator for cell sensitivity to the complexes in A549 cell line. 10^5 cells/mL were seeded in complete medium in flat‐bottom, 96‐well plates (100 μL/well) and allowed to attach for 24 h prior to addition of compounds. The complexes were dissolved in DMSO and added to cells in concentrations ranging from 0.5 to 50 μM in quadruplicate. Cells were incubated with our compounds for 24 h and then 10 μL of MTT (5 mg mL^−1 in PBS) were added to each well and plates were incubated for 2 h at 37 °C. Finally, culture medium was removed and DMSO (100 μL/well) was added to dissolve the formazan crystals. The optical density was measured at 550 nm using a 96‐well multiscanner autoreader (ELISA) and IC50 was calculated. Each compound was analysed at least in three independent experiments.

apb‐ECFCs [4] = experiment: Crystal violet cell viability assay in apb-ECFCs; type: cell-based, human; details: 24 h
Experimental: as §1, §2, §3

apb‐ECFCs [5] = experiment: Annexin V-FITC/PI apoptosis determination in apb-ECFCs; type: cell-based, human; details: 4 μM, 3 h; for Early apoptotic / Late apoptotic / Necrotic / Viable: apb ECFCs; for Mortality level: apb‐ECFCs
Experimental: as §4, §5

[6] = test system: A549 lung carcinoma cells; details: cited from earlier work
A549 cells [7] = experiment: Cell death mechanism by Annexin V-DY634/7-AAD flow cytometry with or without Z-VAD-fmk; type: cell-based, human; details: 24 and 48 h, 30 μM Z‐VAD‐fmk
Experimental: For flow cytometry analysis, phosphatidylserine exposure on cell surface as an “early apoptosis” marker and cell membrane damage as necrosis indicator were evaluated with Annexin V‐DY634 (apoptosis) and the DNA‐labelling dye 7‐AAD (necrosis) staining. […] As shown in Figures 4 and S22 (top graphs), cells are distributed in three populations. Annexin V‐DY634‐only positive cells are indicative of an early apoptotic process, a 7‐AAD‐only labelled cell population represents exploded cells as a typical endpoint of necrotic cell death, and the doubly stained population implies that cells started being apoptotic and then eventually burst, a phenomenon known as “late apoptosis”. It is remarkable that late apoptosis state was easily reached at higher concentrations for both complexes. […] As both compounds activate apoptotic pathway, we wanted to unveil whether caspases were implicated in the cell death process by using the pan‐caspase inhibitor Z‐VAD‐fmk.
Cytotoxicity assays: Apoptotic and necrotic cell death was determined by measuring phosphatidylserine exposure on cell surface and cell membrane permeabilisation, respectively, in A549 cells. […] Cell death was analysed using CellQuest Pro (BD Biosciences), FlowJo 7.6.1 (Becton Dickinson (BD), USA) and GraphPad Prism 5 (GraphPad Software, USA) software.

A549 cells [8] = experiment: ROS production measurement (CellROX, flow cytometry); type: cell-based, human; details: 24 h, up to 80 % of IC50
Experimental: The generation of ROS was analysed by flow cytometry using a fluorogenic CellROX^TM assay kit. Complexes 1 and 4 were selected for the experiment to discriminate between the effects that might drive the presence of the gold fragment. […] Such increment might be in fact associated with the presence of the gold fragment as many reported gold species have shown to induce oxidative stress.[43] Therefore, this experiment seems to indicate that the introduction of the gold fragment activates to a higher extent the mechanisms of ROS generation in A549 cells.
ROS production measurement: 5×10^5 A549 cells/well were seeded in complete medium in flat‐bottom, 6‐well plates (3 mL/well) and allowed to attach for 24 h prior to addition of the compound. Complexes 1 and 4 were dissolved in DMSO and added to cells up to concentration of 80 % (IC50) in duplicate. Cells were incubated with the complexes for 24 h and subsequently, they were trypsinised and the CellROX®Green Flow cytometry assay kit (C10492) was used to evaluate the generation of ROS in a Gallios Flow Cytometer (Beckman Coulter) using Kaluza v2.1 software for data analysis.

A549 cells [9] = experiment: Mitochondrial transmembrane potential analysis (TMRE, flow cytometry); type: cell-based, human; details: 48 h
From the text: TMRE is a positively charged dye that accumulates in cells with active mitochondria as consequence of their net internal negative charge but several cell insults, including chemotherapeutic agents, lead to mitochondrial depolarisation and thus TMRE incorporation fails. A shift is seen in the pattern staining for complexes 1 (Figure S29) and 4 (Figure 13) in comparison with untreated cells and this overlaps with that seen when treating cells with S63845 (positive control), a selective inhibitor of the Mcl‐1 antiapoptotic protein involved in the regulation of the mitochondrial apoptotic pathway.
Mitochondrial transmembrane potential analysis: Integrity of the mitochondrial outer membrane was evaluated by measuring disruption of mitochondrial transmembrane potential. For this assay, 10^5 A549 cells/mL were seeded in complete medium in flat‐bottom, 12‐well plates (1 mL/well) and allowed to attach for 24 h prior to addition of compounds. Cells were treated for 48 h with compound 4 at 150 μM in duplicate. Then, they were trypsinised, resuspended in 500 μl of a mixture of complete medium and 60 nM of the tetramethilrhodamine ethyl ester (TMRE) probe and incubated at 37 °C in the dark for 20 min. Finally, a total of 10 000 cells were acquired on a FACSCalibur flow cytometer (BD Biosciences) and data were analysed using the aforementioned software.

| SMILES | Tube formation activity of ECFCs on Cultrex matrix (ECFCs) | IC50 (ucb‐ECFCs [1]) | Early apoptotic (ucb‐ECFCs [2]) | Late apoptotic (ucb‐ECFCs [2]) | Necrotic (ucb‐ECFCs [2]) | Viable (ucb‐ECFCs [2]) | IC50 [3] | IC50 (apb‐ECFCs [4]) | Early apoptotic (apb‐ECFCs [5]) | Late apoptotic (apb‐ECFCs [5]) | Necrotic (apb‐ECFCs [5]) | Viable (apb‐ECFCs [5]) | Mortality level (apb‐ECFCs [5]) | IC50 [6] | Cell death mechanism (effect of pan-caspase inhibitor Z-VAD-fmk) (A549 cells [7]) | ROS generation (A549 cells [8]) | Disruption of mitochondrial transmembrane potential (TMRE staining) (A549 cells [9]) |
| --- | --- | --- | --- | --- | --- | --- | --- | --- | --- | --- | --- | --- | --- | --- | --- | --- | --- |
| F[P-](F)(F)(F)(F)F.c1ccc([P+]([Au-][CH]2[P+](c3ccccc3)(c3ccccc3)[Ir-3]34([c]5ccccc5-c5cccc[n+]53)([c]3ccccc3-c3cccc[n+]34)[P+]2(c2ccccc2)c2ccccc2)(c2ccccc2)c2ccccc2)cc1 [Complex 2] | reduced although not completely impaired | 2.63 µM | 0.93% | 17.24% | 5.01% | 76.82% | 0.8 ± 0.06 µM | 3.52 µM | 9.22% | 8.40% | 0.14% | 82.25% | no toxic |  |  |  |  |
| [Cl][AuH][CH]1[P+](c2ccccc2)(c2ccccc2)[Ir-3]23([c]4ccccc4-c4cccc[n+]42)([c]2ccccc2-c2cccc[n+]23)[P+]1(c1ccccc1)c1ccccc1 [Complex 3] |  |  |  |  |  |  | 1.7 ± 0.08 µM |  |  |  |  |  |  |  |  |  |  |
| N.N.[Cl][Pt][Cl] [cisplatin, reference compound] |  |  |  |  |  |  |  |  |  |  |  |  |  | 20.8 ± 2.1 µM |  |  |  |
| c1cc[c]2c(c1)-c1cccc[n+]1[Ir-3]213([Cl+][Ir-3]24([Cl+]1)([c]1ccccc1-c1cccc[n+]12)[c]1ccccc1-c1cccc[n+]14)[c]1ccccc1-c1cccc[n+]13 [dimer, [Ir(ppy)2(μ‐Cl)]2] |  |  |  |  |  |  | > 50 µM |  |  |  |  |  |  |  |  |  |  |
| F[P-](F)(F)(F)(F)F.c1ccc([P+]2(c3ccccc3)C[P+](c3ccccc3)(c3ccccc3)[Ir-3]234([c]2ccccc2-c2cccc[n+]23)[c]2ccccc2-c2cccc[n+]24)cc1 [Complex 1, [Ir(ppy)2(dppm)]PF6] | reduced although not completely impaired | 1.16 µM | 1.12% | 21.81% | 3.96% | 73.10% | 1 ± 0.08 µM | 2.71 µM | 8.30% | 51.93% | 9.02% | 30.75% | 50% |  | caspase‐independent cell death mechanism | dose‐dependent increase in the generation of ROS | complete disruption of mitochondrial transmembrane potential |
